Measured values taken from ChEMBL document CHEMBL1938264, “Novel 3,4-isoxazolediamides as potent inhibitors of chaperone heat shock protein 90” (J Med Chem, 2011).

Legend:
[1] = target: Heat shock protein HSP 90-beta (Homo sapiens, UniProt P08238); experiment: Binding affinity to Hsp90 after 4 hrs by fluorescence polarization assay
NCI-H460 = experiment: Cytotoxicity against human NCI-H460 after 72 hrs by sulforhodamine B assay; type: functional, cell-based; conditions: NCI-H460, 72 h
Mus musculus = experiment: Toxicity in human A431 cells xenografted CD1 Harlan mouse assessed as body weight loss at 60 mg/kg, ip qd administered for 5 days; type: organism-based, A-431; design: dose 60 mg/kg, route intraperitoneal; conditions: in vivo, 120 h
[2] = Toxicity in human A431 cells xenografted ip dosed CD1 Harlan mouse; type: organism-based, A-431; conditions: in vivo
A-431 = experiment: Antitumor activity against human A431 cells xenografted in CD1 Harlan mouse assessed as tumor volume inhibition at 60 mg/kg, ip qd administered for 5 days; type: functional; conditions: A-431, ip, 120 h, route intraperitoneal

Heat shock protein HSP 90-beta, sequence (P08238 whole entry): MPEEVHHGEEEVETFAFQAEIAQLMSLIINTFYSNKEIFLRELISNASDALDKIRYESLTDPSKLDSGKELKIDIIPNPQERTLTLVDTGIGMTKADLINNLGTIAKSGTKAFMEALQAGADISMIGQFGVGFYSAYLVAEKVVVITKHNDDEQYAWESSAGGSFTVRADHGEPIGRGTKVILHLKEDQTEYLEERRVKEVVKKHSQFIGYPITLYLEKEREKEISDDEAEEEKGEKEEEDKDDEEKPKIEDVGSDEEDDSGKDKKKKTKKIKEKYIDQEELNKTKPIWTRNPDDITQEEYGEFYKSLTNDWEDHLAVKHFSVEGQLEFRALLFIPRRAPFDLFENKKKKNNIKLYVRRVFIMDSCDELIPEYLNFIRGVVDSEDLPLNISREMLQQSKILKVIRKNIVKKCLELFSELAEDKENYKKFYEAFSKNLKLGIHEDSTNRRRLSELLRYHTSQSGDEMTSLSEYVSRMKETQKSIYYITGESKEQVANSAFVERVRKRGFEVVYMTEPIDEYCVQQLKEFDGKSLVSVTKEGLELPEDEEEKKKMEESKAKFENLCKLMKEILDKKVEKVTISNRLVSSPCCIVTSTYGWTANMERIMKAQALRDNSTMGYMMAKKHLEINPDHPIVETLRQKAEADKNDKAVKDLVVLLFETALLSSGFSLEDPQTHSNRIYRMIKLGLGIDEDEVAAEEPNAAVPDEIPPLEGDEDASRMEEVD

| IC50 [1] [nM] | Compound | IC50 (NCI-H460) [nM] | Activity (Mus musculus) [%] | MTD [2] [mg/kg] | inhibition in vivo at 60 mg/kg (A-431) [%] |
| --- | --- | --- | --- | --- | --- |
| 33 | CCNC(=O)c1noc(-c2cc(C(C)C)c(O)cc2O)c1NC(=O)c1ccc2cc[nH]c2c1 | 170 | – | – | – |
| 36 | CCNC(=O)c1noc(-c2cc(C(C)C)c(O)cc2O)c1NC(=O)c1cccc2cccnc12 | 490 | – | – | – |
| 22 | CCNC(=O)c1noc(-c2cc(C(C)C)c(O)cc2O)c1NC(=O)c1ccc(N2CCCC2)cc1 | 810 | – | – | – |
| 34 | CCNC(=O)c1noc(-c2cc(C(C)C)c(O)cc2O)c1NC(=O)c1ccc2ccn(C)c2c1 | 87 | – | – | – |
| 153 | CCNC(=O)c1noc(-c2cc(Cl)c(O)cc2O)c1NC(=O)c1ccc(Br)cc1 | > 1000 | – | – | – |
| 74 | CCNC(=O)c1noc(-c2cc(Cl)c(O)cc2O)c1NC(=O)c1sccc1C | 410 | – | – | – |
| 34 | CCNC(=O)c1noc(-c2cc(C(C)C)c(O)cc2O)c1NC(=O)c1ccc(OC)c(F)c1 | 55 | – | – | – |
| 230 | CCNC(=O)c1noc(-c2cc(Cl)c(O)cc2O)c1NCc1sccc1C | > 1000 | – | – | – |
| 620 | CCNC(=O)c1noc(-c2cc(Cl)c(O)cc2O)c1NC1CCCCC1 | > 1000 | – | – | – |
| 62 | CCNC(=O)c1noc(-c2cc(C(C)C)c(O)cc2O)c1NC(=O)c1cc2ccccc2n1C | 360 | – | – | – |
| 160 | COc1ccc(C(=O)Nc2c(C(=O)NCC(F)(F)F)noc2-c2cc(Cl)c(O)cc2O)cc1 | > 1000 | – | – | – |
| < 5 | CCNC(=O)c1noc(-c2cc(C(C)C)c(O)cc2O)c1NC(=O)c1ccco1 | 22 | – | – | – |
| 167 | C=CC(=O)Nc1c(C(=O)NCC)noc1-c1cc(Cl)c(O)cc1O | > 1000 | – | – | – |
| 40 | CCNC(=O)c1noc(-c2cc(C(C)C)c(O)cc2O)c1NC(=O)c1nc(C)c(-c2ccc(F)cc2)s1 | > 1000 | – | – | – |
| 163 | CCNC(=O)c1noc(-c2cc(Cl)c(O)cc2O)c1NC(=O)c1ccc(OC)c(OC)c1 | > 1000 | – | – | – |
| 20 | CCNC(=O)c1noc(-c2cc(C(C)C)c(O)cc2O)c1NC(=O)c1ccc2ccsc2c1 | 180 | – | – | – |
| 85 | CCNC(=O)c1noc(-c2cc(Cl)c(O)cc2O)c1NC(=O)C(C)(C)C | 310 | – | – | – |

| IC50 [1] [nM] | Compound | IC50 (NCI-H460) [nM] | Activity (Mus musculus) [%] | MTD [2] [mg/kg] | inhibition in vivo at 60 mg/kg (A-431) [%] |
| --- | --- | --- | --- | --- | --- |
| 34 | CCNC(=O)c1noc(-c2cc(C(C)C)c(O)cc2O)c1NC(=O)c1ccc(N(C)C)cc1 | 240 | – | – | – |
| < 5 | CCNC(=O)c1noc(-c2cc(C(C)C)c(O)cc2O)c1NC(=O)c1ccc(C)o1 | 16 | – | – | – |
| 37 | CCNC(=O)c1noc(-c2cc(Cl)c(O)cc2O)c1NC(C)=O | > 1000 | – | – | – |
| 430 | CCNC(=O)c1noc(-c2cc(Cl)c(O)cc2O)c1NCc1ccc(OC)cc1 | > 1000 | – | – | – |
| 32 | CCNC(=O)c1noc(-c2cc(C(C)C)c(O)cc2O)c1NC(=O)c1ccc(-n2cccc2)cc1 | > 1000 | – | – | – |
| 26 | CCNC(=O)c1noc(-c2cc(C(C)C)c(O)cc2O)c1NC(=O)c1ccc(OC)cc1 | 17 | – | – | – |
| 130 | CCNC(=O)c1noc(-c2cc(Cl)c(O)cc2O)c1NC(=O)c1cc(OC)c(OC)c(OC)c1 | > 1000 | – | – | – |
| 22 | CCNC(=O)c1noc(-c2cc(C(C)C)c(O)cc2O)c1NC(=O)c1ccc(Br)o1 | 19 | – | – | – |
| 168 | CCNC(=O)c1noc(-c2cc(Cl)c(O)cc2O)c1NC(=O)CCN1CCOCC1 | 130 | – | – | – |
| 184 | CCNC(=O)c1noc(-c2cc(Cl)c(O)cc2O)c1NC(=O)c1ccc(OC)cc1 | > 1000 | – | – | – |
| 260 | CCNC(=O)c1noc(-c2cc(C(C)C)c(O)cc2O)c1NC(=O)c1oc2ccccc2c1C | > 1000 | – | – | – |
| > 100000 | COc1ccc(C(=O)Nc2c(C(=O)N3CC(F)(F)C3)noc2-c2cc(Cl)c(O)cc2O)cc1 | > 1000 | – | – | – |
| 48 | CCNC(=O)c1noc(-c2cc(C(C)C)c(O)cc2O)c1NC(=O)c1oc2ccc(OC)cc2c1C | 750 | – | – | – |
| 55 | CCNC(=O)c1noc(-c2cc(C(C)C)c(O)cc2O)c1NC(C)=O | 81 | – | – | – |
| 15 | CCNC(=O)c1noc(-c2cc(C(C)C)c(O)cc2O)c1NC(=O)c1ccc2ncoc2c1 | 110 | – | – | – |
| 1600 | CCNC(=O)c1noc(-c2cc(Cl)c(O)cc2O)c1NC1CCN(C)CC1 | > 1000 | – | – | – |
| 27 | CCNC(=O)c1noc(-c2cc(C(C)C)c(O)cc2O)c1NC(=O)c1sc(-c2ccncc2)nc1C | > 1000 | – | – | – |

The next lines start with the compound.

| Compound | IC50 [1] [nM] | IC50 (NCI-H460) [nM] | Activity (Mus musculus) [%] | MTD [2] [mg/kg] | inhibition in vivo at 60 mg/kg (A-431) [%] |
| --- | --- | --- | --- | --- | --- |
| CCNC(=O)c1noc(-c2cc(C(C)C)c(O)cc2O)c1NC(=O)c1ccc(N2CCN(C)CC2)cc1 | 24 | > 1000 | – | – | – |
| CCNC(=O)c1noc(-c2cc(C(C)C)c(O)cc2O)c1NC(=O)[C@H]1CC[C@H](CN2CCOCC2)CC1 | 8.8 | 130 | – | – | – |
| CCNC(=O)c1noc(-c2cc(C(C)C)c(O)cc2O)c1-c1ccc(CN2CCOCC2)cc1 [LUMINESPIB] | – | 2.4 | 8 | 60 | 48 |
| CCNC(=O)c1noc(-c2cc(C(C)C)c(O)cc2O)c1NC(=O)[C@H]1CC[C@H](C(N)=O)CC1 | < 5 | > 1000 | – | – | – |
| CCNC(=O)c1noc(-c2cc(C(C)C)c(O)cc2O)c1NC(=O)c1cc(-c2ccccc2)on1 | 250 | > 1000 | – | – | – |
| CCNC(=O)c1noc(-c2cc(C(C)C)c(O)cc2O)c1NC(=O)[C@H]1CC[C@H](OC(=O)CN)CC1 | < 5 | > 1000 | – | – | – |
| CCNC(=O)c1noc(-c2cc(C(C)C)c(O)cc2O)c1NC(=O)C1CCC(C(C)(C)C)CC1 (configuration not stated) | 30 | 200 | – | – | – |
| CCNC(=O)c1noc(-c2cc(C(C)C)c(O)cc2O)c1NC(=O)[C@H]1CC[C@@H](N2CCOCC2)CC1 | 7.4 | 610 | – | – | – |
| CCNC(=O)c1noc(-c2cc(C(C)C)c(O)cc2O)c1NC(=O)[C@H]1CC[C@H](CN)CC1 | 40 | > 1000 | – | – | – |
| CCNC(=O)c1noc(-c2cc(C(C)C)c(O)cc2O)c1NC(=O)[C@H]1CC[C@H](O)CC1 | < 5 | > 1000 | – | – | – |
| CCNC(=O)c1noc(-c2cc(C(C)C)c(O)cc2O)c1NC(=O)C1CCNCC1 | < 5 | > 1000 | – | – | – |
| CCNC(=O)c1noc(-c2cc(C(C)C)c(O)cc2O)c1NC(=O)[C@H]1CC[C@H](CO)CC1 | < 5 | 600 | – | – | – |
| CCCCC[C@H]1CC[C@H](C(=O)Nc2c(C(=O)NCC)noc2-c2cc(C(C)C)c(O)cc2O)CC1 | 260 | > 1000 | – | – | – |
| CCNC(=O)c1noc(-c2cc(C(C)C)c(O)cc2O)c1NC(=O)C1CC(O)C1 (configuration not stated) | 14 | 920 | – | – | – |
| CCNC(=O)c1noc(-c2cc(C(C)C)c(O)cc2O)c1NC(=O)c1ccc(N2CCNCC2)cc1 | 32 | > 1000 | – | – | – |
| CCNC(=O)c1noc(-c2cc(C(C)C)c(O)cc2O)c1NC(=O)[C@H]1CC[C@H](CNS(=O)(=O)c2ccccc2)CC1 | < 5 | > 1000 | – | – | – |
| CCNC(=O)c1noc(-c2cc(C(C)C)c(O)cc2O)c1NC(=O)[C@H]1CC[C@H](N)CC1 | 28 | > 1000 | – | – | – |
| CCNC(=O)c1noc(-c2cc(C(C)C)c(O)cc2O)c1NC(=O)[C@H]1CC[C@H](CNS(=O)(=O)c2ccc(F)cc2)CC1 | 5.4 | 640 | – | – | – |

| Compound | IC50 [1] [nM] | IC50 (NCI-H460) [nM] | Activity (Mus musculus) [%] | MTD [2] [mg/kg] | inhibition in vivo at 60 mg/kg (A-431) [%] |
| --- | --- | --- | --- | --- | --- |
| CCNC(=O)c1noc(-c2cc(C(C)C)c(O)cc2O)c1NC(=O)c1sc(C)nc1C | 10 | 560 | – | – | – |
| CCNC(=O)c1noc(-c2cc(C(C)C)c(O)cc2O)c1NC(=O)[C@H]1CC[C@H](CNC)CC1 | 8.6 | > 1000 | – | – | – |
| CCNC(=O)c1noc(-c2cc(C(C)C)c(O)cc2O)c1NC(=O)C1CCC(C(F)(F)F)CC1 (configuration not stated) | 240 | 42 | – | – | – |
| CCNC(=O)c1noc(-c2cc(C(C)C)c(O)cc2O)c1NC(=O)CCN1CCN(C)CC1 | 120 | > 1000 | – | – | – |
| CCNC(=O)c1noc(-c2cc(C(C)C)c(O)cc2O)c1NC(=O)[C@H]1CC[C@@H](CO)CC1 | 15 | 870 | – | – | – |
| CCNC(=O)c1noc(-c2cc(C(C)C)c(O)cc2O)c1NC(=O)[C@H]1CC[C@@H](O)CC1 | < 5 | 500 | – | – | – |
| CCNC(=O)c1noc(-c2cc(C(C)C)c(O)cc2O)c1NC(=O)[C@@H]1CC[C@H](CO)C1 (relative stereo) | 12.6 | > 260 | – | – | – |
| CCNC(=O)c1noc(-c2cc(Cl)c(O)cc2O)c1NC(=O)C12CC3CC(CC(C3)C1)C2 | 250 | 750 | – | – | – |
| CCNC(=O)c1noc(-c2cc(C(C)C)c(O)cc2O)c1NC(=O)[C@H]1CC[C@H](N2CCOCC2)CC1 | < 5 | 680 | – | – | – |
| CCNC(=O)c1noc(-c2cc(C(C)C)c(O)cc2O)c1NC(=O)[C@@H]1CC[C@H](CN2CCOCC2)C1 (relative stereo) | 12 | 170 | – | – | – |
| CCNC(=O)c1noc(-c2cc(C(C)C)c(O)cc2O)c1NC(=O)[C@H]1CC[C@@H](CN2CCOCC2)CC1 | 19.6 | 140 | – | – | – |
| CCNC(=O)c1cc(C(=O)Nc2c(C(=O)NCC)noc2-c2cc(C(C)C)c(O)cc2O)on1 | 24 | > 1000 | – | – | – |
| CCNC(=O)c1noc(-c2cc(C(C)C)c(O)cc2O)c1NC(=O)[C@@H]1CC[C@H](C(=O)OC)C1 | < 5 | 22 | – | – | – |
| CCNC(=O)c1noc(-c2cc(C(C)C)c(O)cc2O)c1NC(=O)C1CCN(C)CC1 | 24 | > 1000 | – | – | – |
| CCNC(=O)c1noc(-c2cc(C(C)C)c(O)cc2O)c1NC(=O)[C@@H]1CC[C@H](C(=O)O)C1 | 39 | > 1000 | – | – | – |
| CCNC(=O)c1noc(-c2cc(C(C)C)c(O)cc2O)c1NC(=O)[C@H]1CC[C@@H](C(N)=O)CC1 | < 5 | 990 | – | – | – |
| CCNC(=O)c1noc(-c2cc(C(C)C)c(O)cc2O)c1NC(=O)CCN1CCOCC1 | 214 | 110 | – | – | – |
| CCNC(=O)c1noc(-c2cc(C(C)C)c(O)cc2O)c1NC(=O)c1cc(C(C)=O)on1 | 19 | 82 | – | – | – |
